Values quoted from earlier work in patent publication US20130131091A1, “HARMFUL ORGANISM CONTROL AGENT” (priority 2010, published 2013).

Tests used:
[1] = system: larvae of Helicoverpa zea
[2] = system: Tenebrio molitor L
[3] = system: Plutella xylostella L larvae

Measured: insecticidal activity

CC(=O)OCC1(C)C(OC(C)=O)CCC2(C)C1CC(OC(C)=O)C1(C)Oc3cc(-c4cccnc4)oc(=O)c3C(O)C21 (stereo not drawn) [pyripyropene A]
insecticidal activity: [1] | [2] | [3]
